Data taken from US10670605B2, “Cysteine reactive probes and uses thereof” (The Scripps Research Institute, priority 2015, dated 2020).
Where a name gives a salt, the structure may show the parent alone.

Columns and labels:
Assay in all cases: isoTOP-ABPP of compound-treated primary human T cells
Format in all cases: cell-based
[1] = target: T1, Cys residues in primary human T cells (Homo sapiens, UniProt Q9UL40); conditions: ZNF346 C68 (Q9UL40)
T1 sequence (Q9UL40 1-294): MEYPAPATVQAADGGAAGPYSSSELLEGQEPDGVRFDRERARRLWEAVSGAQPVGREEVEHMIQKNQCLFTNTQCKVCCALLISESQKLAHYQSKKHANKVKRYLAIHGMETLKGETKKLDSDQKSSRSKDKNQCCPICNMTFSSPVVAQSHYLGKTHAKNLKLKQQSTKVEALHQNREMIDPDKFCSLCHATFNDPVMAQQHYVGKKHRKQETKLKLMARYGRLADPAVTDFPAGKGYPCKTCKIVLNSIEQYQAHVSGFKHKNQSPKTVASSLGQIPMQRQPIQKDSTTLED

[2] = target: Cys residues in primary human T cells (Homo sapiens, UniProt Q7Z4W1); conditions: DCXR C244 (Q7Z4W1)
[3] = target: Cys residues in primary human T cells (Homo sapiens, UniProt Q96FV9); conditions: THOC1 C49 (Q96FV9)
[4] = target: T2, Cys residues in primary human T cells (Homo sapiens, UniProt P00813); conditions: ADA C75 (P00813)
T2 sequence (P00813 1-363): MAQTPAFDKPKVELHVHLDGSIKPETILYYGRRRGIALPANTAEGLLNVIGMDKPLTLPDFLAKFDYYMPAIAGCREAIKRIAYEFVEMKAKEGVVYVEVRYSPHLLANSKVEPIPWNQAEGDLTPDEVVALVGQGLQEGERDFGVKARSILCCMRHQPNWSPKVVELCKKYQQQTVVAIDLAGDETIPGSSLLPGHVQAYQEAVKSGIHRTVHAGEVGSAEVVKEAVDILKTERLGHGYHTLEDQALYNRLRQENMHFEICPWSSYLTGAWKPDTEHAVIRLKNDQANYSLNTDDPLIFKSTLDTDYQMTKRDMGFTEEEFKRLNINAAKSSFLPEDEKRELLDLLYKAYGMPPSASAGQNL

[5] = target: T3, Cys residues in primary human T cells (Homo sapiens, UniProt Q9Y6C9); conditions: MTCH2 C296 (Q9Y6C9)
T3 sequence (Q9Y6C9 1-303): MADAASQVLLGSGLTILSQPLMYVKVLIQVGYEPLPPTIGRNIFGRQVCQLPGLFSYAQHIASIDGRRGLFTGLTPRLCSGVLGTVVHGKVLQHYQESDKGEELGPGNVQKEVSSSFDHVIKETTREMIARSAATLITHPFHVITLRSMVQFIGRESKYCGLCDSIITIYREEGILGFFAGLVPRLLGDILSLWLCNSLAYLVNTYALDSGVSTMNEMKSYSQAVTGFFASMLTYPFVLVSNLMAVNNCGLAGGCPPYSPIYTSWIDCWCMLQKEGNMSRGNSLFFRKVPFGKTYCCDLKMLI

[6] = target: T4, Cys residues in primary human T cells (Homo sapiens, UniProt Q96Q11); conditions: TRNT1 C373 (Q96Q11)
T4 sequence (Q96Q11 42-434): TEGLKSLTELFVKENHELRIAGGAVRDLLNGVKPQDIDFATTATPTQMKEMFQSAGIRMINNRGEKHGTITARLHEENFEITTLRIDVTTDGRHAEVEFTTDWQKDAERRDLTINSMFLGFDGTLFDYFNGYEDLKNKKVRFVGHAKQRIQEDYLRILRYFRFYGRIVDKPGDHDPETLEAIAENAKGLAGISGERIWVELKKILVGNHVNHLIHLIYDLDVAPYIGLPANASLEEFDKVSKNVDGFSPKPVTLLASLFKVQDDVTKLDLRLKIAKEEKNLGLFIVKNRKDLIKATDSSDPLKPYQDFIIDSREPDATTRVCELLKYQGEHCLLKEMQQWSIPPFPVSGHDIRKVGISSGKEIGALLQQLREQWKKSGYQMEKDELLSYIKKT

[7] = target: T5, Cys residues in primary human T cells (Homo sapiens, UniProt Q9NRG0); conditions: CHRAC1 C55 (Q9NRG0)
T5 sequence (Q9NRG0 1-131): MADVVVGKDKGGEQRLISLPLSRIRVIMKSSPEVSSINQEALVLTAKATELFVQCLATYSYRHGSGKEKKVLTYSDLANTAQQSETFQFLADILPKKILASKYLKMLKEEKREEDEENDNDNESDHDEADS

[8] = target: Cys residues in primary human T cells (Homo sapiens, UniProt P31153)
[9] = target: Cys residues in primary human T cells (Homo sapiens, UniProt Q8WXH0); conditions: SYNE2 C553 (Q8WXH0)

Sequence of Cys residues in primary human T cells (Homo sapiens, UniProt Q7Z4W1) (Q7Z4W1 whole entry): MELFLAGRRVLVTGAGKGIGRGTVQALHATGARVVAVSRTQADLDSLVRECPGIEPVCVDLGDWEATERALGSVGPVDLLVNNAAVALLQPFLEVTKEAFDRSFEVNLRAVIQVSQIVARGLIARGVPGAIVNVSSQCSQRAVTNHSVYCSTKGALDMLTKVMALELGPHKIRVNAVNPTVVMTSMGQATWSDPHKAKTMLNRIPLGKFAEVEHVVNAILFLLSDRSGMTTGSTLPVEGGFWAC
Sequence of Cys residues in primary human T cells (Homo sapiens, UniProt P31153) (P31153 whole entry): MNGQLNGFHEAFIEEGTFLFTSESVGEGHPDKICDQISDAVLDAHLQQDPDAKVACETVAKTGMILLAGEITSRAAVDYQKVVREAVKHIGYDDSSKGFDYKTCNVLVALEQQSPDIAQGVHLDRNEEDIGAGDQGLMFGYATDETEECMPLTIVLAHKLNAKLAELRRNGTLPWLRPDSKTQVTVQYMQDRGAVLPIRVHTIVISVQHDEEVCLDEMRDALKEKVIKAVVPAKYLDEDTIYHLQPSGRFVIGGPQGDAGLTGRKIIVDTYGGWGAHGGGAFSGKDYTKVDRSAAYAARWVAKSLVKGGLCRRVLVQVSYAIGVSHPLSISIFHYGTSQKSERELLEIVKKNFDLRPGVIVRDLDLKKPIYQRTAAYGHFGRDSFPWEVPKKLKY
Sequence of Cys residues in primary human T cells (Homo sapiens, UniProt Q96FV9) (Q96FV9 whole entry): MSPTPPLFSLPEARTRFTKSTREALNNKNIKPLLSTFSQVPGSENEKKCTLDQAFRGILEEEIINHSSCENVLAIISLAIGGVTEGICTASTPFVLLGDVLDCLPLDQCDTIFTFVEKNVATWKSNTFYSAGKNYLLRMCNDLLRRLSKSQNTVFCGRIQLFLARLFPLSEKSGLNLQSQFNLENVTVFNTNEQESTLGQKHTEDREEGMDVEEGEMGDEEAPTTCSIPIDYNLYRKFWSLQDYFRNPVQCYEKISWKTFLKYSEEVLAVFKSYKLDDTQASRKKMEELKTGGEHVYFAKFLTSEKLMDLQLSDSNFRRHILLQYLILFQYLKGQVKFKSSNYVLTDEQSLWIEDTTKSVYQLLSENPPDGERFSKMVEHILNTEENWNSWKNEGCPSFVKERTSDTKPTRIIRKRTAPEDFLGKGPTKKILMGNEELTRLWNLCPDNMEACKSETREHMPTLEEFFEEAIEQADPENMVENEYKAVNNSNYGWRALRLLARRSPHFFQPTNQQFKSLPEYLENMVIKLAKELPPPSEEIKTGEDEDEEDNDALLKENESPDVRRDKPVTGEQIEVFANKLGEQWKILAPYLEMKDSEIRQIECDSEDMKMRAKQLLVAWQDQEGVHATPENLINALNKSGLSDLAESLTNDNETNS

COC(=O)/C=C/C(=O)OC [DMF, dimethyl fumarate]
R value (DMSO/DMF) ([1]; DMF 10 μM 4h): 1.98 | R value (DMSO/DMF) ([1]; DMF 50 μM 1h): 2.5 | R value (DMSO/DMF) ([1]; DMF 50 μM 2h): 3.91 | R value (DMSO/DMF) ([1]; DMF 50 μM 4h): 4.6 | R value (DMSO/DMF) ([2]; DMF 10 μM 4h): 2.3 | R value (DMSO/DMF) ([2]; DMF 50 μM 1h): 1.29 | R value (DMSO/DMF) ([2]; DMF 50 μM 2h): 2.76 | R value (DMSO/DMF) ([2]; DMF 50 μM 4h): 4.24 | R value (DMSO/DMF) ([3]; DMF 50 μM 1h): 3.93 | R value (DMSO/DMF) ([3]; DMF 50 μM 2h): 5.7 | R value (DMSO/DMF) ([4]; DMF 10 μM 4h): 2.29 | R value (DMSO/DMF) ([4]; DMF 50 μM 1h): 2.51 | R value (DMSO/DMF) ([4]; DMF 50 μM 2h): 5.08 | R value (DMSO/DMF) ([4]; DMF 50 μM 4h): 20 | R value (DMSO/DMF) ([5]; DMF 10 μM 4h): 1.68 | R value (DMSO/DMF) ([5]; DMF 50 μM 1h): 1.81 | R value (DMSO/DMF) ([5]; DMF 50 μM 2h): 2.44 | R value (DMSO/DMF) ([5]; DMF 50 μM 4h): 4.3 | R value (DMSO/DMF) ([6]; DMF 50 μM 1h): 1.97 | R value (DMSO/DMF) ([6]; DMF 50 μM 2h): 2.66 | R value (DMSO/DMF) ([6]; DMF 50 μM 4h): 5.83 | R value (DMSO/DMF) ([7]; DMF 10 μM 4h): 5.07 | R value (DMSO/DMF) ([7]; DMF 50 μM 1h): 12.59 | R value (DMSO/DMF) ([7]; DMF 50 μM 2h): 11.72 | R value (DMSO/DMF) ([8]; MAT2A C56 (P31153), DMF 50 μM 4h): 4.17 | R value (DMSO/DMF) ([8]; MAT2A C104 (P31153), DMF 10 μM 4h): 1.5 | R value (DMSO/DMF) ([8]; MAT2A C104 (P31153), DMF 50 μM 4h): 4.11 | R value (DMSO/DMF) ([9]; DMF 10 μM 4h): 1.61 | R value (DMSO/DMF) ([9]; DMF 50 μM 2h): 3.29 | R value (DMSO/DMF) ([9]; DMF 50 μM 4h): 4.05
